Here are results for 28 compounds from patent US8883782B2, “Spiro-tetracyclic ring compounds as beta-secretase modulators and methods of use” (Amgen Inc., priority 2010, dated 2014).

Structures are written as SMILES. Where two headings read alike, the source gives them in different places.

Experiment [1] deals with Beta Secretase enzyme (BACE) (Homo sapiens, UniProt P56817). Briefly: In vitro enzymatic BACE FRET (fluorescence resonance energy transfer) assay. Format: biochemical. A digest of the protocol:
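Cleavage of a 50 nM fluorophore/quencher peptide FRET substrate by BACE for 1 h in 0.05 M acetate pH 4.2, 10% DMSO, 100 uM genapol. Reaction stopped with Tris to neutral pH before fluorescence reading.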

Experiment [2] deals with Aβ40 in conditioned medium of cells stably expressing Amyloid Precursor Protein (APP). Briefly: In vitro BACE cell-based assay (Aβ40 in conditioned medium, sandwich ELISA). A digest of the protocol: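 Secreted Aβ40 is captured with pAb40 and detected with biotinylated 6E10, read by europium time-resolved fluorescence. IC50 comes from percent inhibition versus concentration.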

Where [3] appears, read: average IC50, enzyme assay, read-out: BACE 1 FRET assay.
The mark [4] stands for this setting: Homo sapiens, HEK293, average IC50, HEK cells, read-out: HEK cell assay.

Beta Secretase enzyme (BACE), sequence (P56817 46-501, species assumed): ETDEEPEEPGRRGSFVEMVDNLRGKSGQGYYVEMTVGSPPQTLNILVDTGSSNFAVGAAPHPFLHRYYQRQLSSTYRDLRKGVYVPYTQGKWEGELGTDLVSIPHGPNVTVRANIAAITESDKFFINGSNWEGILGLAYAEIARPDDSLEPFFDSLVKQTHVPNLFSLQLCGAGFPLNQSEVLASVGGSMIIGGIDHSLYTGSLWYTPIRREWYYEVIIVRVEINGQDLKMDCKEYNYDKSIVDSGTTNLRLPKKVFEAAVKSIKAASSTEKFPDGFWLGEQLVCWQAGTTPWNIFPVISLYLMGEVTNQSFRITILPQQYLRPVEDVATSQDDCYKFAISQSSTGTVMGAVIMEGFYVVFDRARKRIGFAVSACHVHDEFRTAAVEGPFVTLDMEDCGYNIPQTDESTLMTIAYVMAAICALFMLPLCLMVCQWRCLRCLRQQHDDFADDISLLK

As for `COc1ccc(-c2cc3c(cn2)Oc2ccc(-c4cccnc4F)cc2[C@@]32COC(N)=N2)cc1` [Example 568, (5S)-7-(2-fluoro-3-pyridinyl)-3-(4-methoxyphenyl)spiro[chromeno[2,3-c]pyridine-5,4′-[1,3]oxazol]-2′-amine], the IC50 turned out to be 0.0023 µM in experiment [1] (setting [3]) and 0.0295 µM in experiment [2] (setting [4]).
For `NC1=N[C@@]2(CO1)c1cc(-c3cccnc3F)ccc1Oc1cnc(-c3cncc(F)c3)cc12` [Example 569, (5S)-7-(2-fluoro-3-pyridinyl)-3-(5-fluoro-3-pyridinyl)spiro[chromeno[2,3-c]pyridine-5,4′-[1,3]oxazol]-2′-amine] the same measures were 0.0012 µM and 0.0182 µM.
For `COc1ncc(-c2cc3c(cn2)Oc2ccc(-c4cccnc4F)cc2[C@@]32COC(N)=N2)cc1F` [Example 570, (5S)-3-(5-fluoro-6-methoxy-3-pyridinyl)-7-(2-fluoro-3-pyridinyl)spiro[chromeno[2,3-c]pyridine-5,4′-[1,3]oxazol]-2′-amine] the same measures were 0.002 µM and 0.031 µM.
Regarding `NC1=N[C@@]2(CO1)c1cc(-c3cccnc3F)ccc1Oc1cnc(-c3cncnc3)cc12` [Example 571, (5S)-7-(2-fluoro-3-pyridinyl)-3-(5-pyrimidinyl)spiro[chromeno[2,3-c]pyridine-5,4′-[1,3]oxazol]-2′-amine], the IC50 in experiment [1] (setting [3]) was 0.0066 µM; in experiment [2] (setting [4]), 0.11 µM.
For `NC1=N[C@@]2(CO1)c1cc(-c3cccnc3F)ccc1Oc1cnc(-c3ccncc3F)cc12` [Example 572, (5S)-7-(2-fluoro-3-pyridinyl)-3-(3-fluoro-4-pyridinyl)spiro[chromeno[2,3-c]pyridine-5,4′-[1,3]oxazol]-2′-amine] the same measures were 0.0118 µM and 0.148 µM.
As to `NC1=N[C@@]2(CO1)c1cc(-c3ccncc3F)ccc1Oc1cnc(-c3ccnc(F)c3)cc12` [Example 573, (5S)-3-(2-fluoro-4-pyridinyl)-7-(3-fluoro-4-pyridinyl)spiro[chromeno[2,3-c]pyridine-5,4′-[1,3]oxazol]-2′-amine], the IC50 in experiment [1] (setting [3]) stood at 0.0708 µM; in experiment [2] (setting [4]), 0.801 µM.
For `NC1=N[C@@]2(CO1)c1cc(-c3ccncc3F)ccc1Oc1cnc(-c3cccnc3F)cc12` [Example 574, (5S)-3-(2-fluoro-3-pyridinyl)-7-(3-fluoro-4-pyridinyl)spiro[chromeno[2,3-c]pyridine-5,4′-[1,3]oxazol]-2′-amine] the same measures were 0.856 µM and 2.23 µM.
For `NC1=N[C@@]2(CO1)c1cc(-c3ccncc3F)ccc1Oc1cnc(-c3cncc(F)c3)cc12` [Example 575, (5S)-7-(3-fluoro-4-pyridinyl)-3-(5-fluoro-3-pyridinyl)spiro[chromeno[2,3-c]pyridine-5,4′-[1,3]oxazol]-2′-amine], in that order: 0.083 µM and 0.971 µM.
For `NC1=N[C@]2(CS1)c1cc(-c3cccnc3F)ccc1Oc1ncc(C3=CCOCC3)cc12` [Example 577, (5R)-3-(3,6-dihydro-2H-pyran-4-yl)-7-(2-fluoro-3-pyridinyl)spiro[chromeno[2,3-b]pyridine-5,4′-[1,3]thiazol]-2′-amine] the same measures were 0.0017 µM and 0.0164 µM.
For the compound `NC1=N[C@]2(CS1)c1cc(I)ccc1Oc1ncc(Br)cc12` [Example 579, (5R)-3-bromo-7-iodospiro[chromeno[2,3-b]pyridine-5,4′-[1,3]thiazol]-2′-amine], the values for the IC50 in experiment [1] (setting [3]) and in experiment [2] (setting [4]) were 1.93 µM and 3.18 µM, respectively.
For `Cc1ccc(-c2cnc3c(c2)[C@]2(CSC(N)=N2)c2cc(-c4cccnc4F)ccc2O3)cn1` [Example 582, (5S)-7-(2-fluoro-3-pyridinyl)-3-(6-methyl-3-pyridinyl)spiro[chromeno[2,3-b]pyridine-5,4′-[1,3]thiazol]-2′-amine] the same measures were 0.002 µM and 0.005 µM.
Take `Cn1cc(-c2cnc3c(c2)[C@]2(CSC(N)=N2)c2cc(-c4cccnc4F)ccc2O3)cn1` [Example 584, (5S)-7-(2-fluoro-3-pyridinyl)-3-(1-methyl-1H-pyrazol-4-yl)spiro[chromeno[2,3-b]pyridine-5,4′-[1,3]thiazol]-2′-amine]: the values for the IC50 in experiment [1] (setting [3]) and in experiment [2] (setting [4]) were 0.002 µM and 0.0159 µM, respectively.
For `NC1=N[C@]2(CS1)c1cc(-c3cccnc3)ccc1Oc1ncc(C3=CCOCC3)cc12` [Example 585, (5R)-3-(3,6-dihydro-2H-pyran-4-yl)-7-(3-pyridinyl)spiro[chromeno[2,3-b]pyridine-5,4′-[1,3]thiazol]-2′-amine] the same measures were 0.0025 µM and 0.0181 µM.
With `NC1=N[C@@]2(CS1)c1cc(-c3cccnc3F)ccc1Oc1cnc(C3=CCOCC3)cc12` [Example 590, (5S)-3-(3,6-dihydro-2H-pyran-4-yl)-7-(2-fluoro-3-pyridinyl)spiro[chromeno[2,3-c]pyridine-5,4′-[1,3]thiazol]-2′-amine], the IC50 was 0.0007 µM in experiment [1] (BACE 1 FRET assay (uM)) and 0.0093 µM in experiment [2] (Homo sapiens, HEK293, read-out: HEK cell assay (uM), average IC50, HEK cells).
For `NC1=N[C@@]2(CS1)c1cc(-c3cccc(Cl)c3)ccc1Oc1cnc(C3=CCOCC3)cc12` [Example 591, (5S)-7-(3-chlorophenyl)-3-(3,6-dihydro-2H-pyran-4-yl)spiro[chromeno[2,3-c]pyridine-5,4′-[1,3]thiazol]-2′-amine], the IC50 in experiment [1] (setting [3]) turned out to be 0.0007 µM; in experiment [2] (setting [4]) it was 0.0733 µM.
Take `NC1=N[C@@]2(CS1)c1cc(-c3cncc(F)c3)ccc1Oc1cnc(C3=CCOCC3)cc12` [Example 592, (5S)-3-(3,6-dihydro-2H-pyran-4-yl)-7-(5-fluoro-3-pyridinyl)spiro[chromeno[2,3-c]pyridine-5,4′-[1,3]thiazol]-2′-amine]: the IC50 in experiment [1] (setting [3]) stood at 0.0009 µM; in experiment [2] (average IC50, HEK cells, read-out: HEK cell assay) it was 0.0213 µM.
As for `CC1(C#Cc2cc(F)c3c(c2)[C@]2(COC(N)=N2)c2cc(-c4ccc(F)nc4)ccc2O3)COC1` [Example 598], the IC50 came out at 0.0041 µM in experiment [1] (setting [3]) and 0.032 µM in experiment [2] (setting [4]).
As for `CC1(C#Cc2cc(F)c3c(c2)[C@]2(COC(N)=N2)c2cc(-c4cncc(F)c4)ccc2O3)COC1` [Example 599, (4S)-4′-fluoro-7′-(5-fluoro-3-pyridinyl)-2′-((3-methyl-3-oxetanyl)ethynyl)spiro[1,3-oxazole-4,9′-xanthen]-2-amine], the IC50 was 0.0011 µM in experiment [1] (setting [3]) and 0.011 µM in experiment [2] (setting [4]).
For `NC1=N[C@@]2(CO1)c1cc(-c3cc(F)cnc3F)ccc1Oc1cnc(C3=CCOCC3)cc12` [Example 600, (5S)-7-(2,5-difluoro-3-pyridinyl)-3-(3,6-dihydro-2H-pyran-4-yl)spiro[chromeno[2,3-c]pyridine-5,4′-[1,3]oxazol]-2′-amine] the same measures were 0.0177 µM and 0.165 µM.
For `NC1=N[C@]2(CS1)c1cc(-c3cccnc3)ccc1Oc1ncc(N3CCOCC3)cc12` [Example 601, (5R)-3-(4-morpholinyl)-7-(3-pyridinyl)spiro[chromeno[2,3-b]pyridine-5,4′-[1,3]thiazol]-2′-amine] the same measures were 2.29 µM and 0.724 µM.
For `NC1=N[C@@]2(CS1)c1cc(-c3cccnc3)ccc1Oc1ncc(N3CCOCC3)cc12` [Example 602, (5S)-3-(4-morpholinyl)-7-(3-pyridinyl)spiro[chromeno[2,3-b]pyridine-5,4′-[1,3]thiazol]-2′-amine], in that order: 0.0028 µM and 0.017 µM.
In the case of `NC1=N[C@@]2(CS1)c1cc(-c3cccnc3F)ccc1Oc1ncc(Br)cc12` [Example 603, (5S)-3-bromo-7-(2-fluoro-3-pyridinyl)spiro[chromeno[2,3-b]pyridine-5,4′-[1,3]thiazol]-2′-amine], the IC50 in experiment [1] (setting [3]) is 0.0087 µM; in experiment [2] (setting [4]), 0.188 µM.
For `CC1(COc2cc(F)c3c(c2)[C@]2(COC(N)=N2)c2cc(-c4cnccc4F)ccc2O3)COC1` [Example 604, (4S)-4′-fluoro-7′-(4-fluoro-3-pyridinyl)-2′-((3-methyl-3-oxetanyl)methoxy)spiro[1,3-oxazole-4,9′-xanthen]-2-amine], in that order: 0.0006 µM and 0.005 µM.
Consider `CC(C)(C#N)COc1cc(F)c2c(c1)[C@]1(COC(N)=N1)c1cc(-c3cnccc3F)ccc1O2` [Example 605, 3-(((4S)-2-amino-4′-fluoro-7′-(4-fluoro-3-pyridinyl)spiro[1,3-oxazole-4,9′-xanthen]-2′-yl)oxy)-2,2-dimethylpropanenitrile], for which the IC50 was determined as 0.0008 µM in experiment [1] (setting [3]) and 0.01 µM in experiment [2] (setting [4]).
For `COc1cc(F)c2c(c1)[C@]1(CSC(N)=N1)c1cc(Br)ccc1O2` [Example 606, (4S)-7′-bromo-4′-fluoro-2′-methoxyspiro[1,3-thiazole-4,9′-xanthen]-2-amine], in that order: 0.813 µM and 0.279 µM.
For `COc1nccc(-c2cc(F)c3c(c2)[C@]2(COC(N)=N2)c2cc(-c4cccnc4F)ccc2O3)n1` [Example 607, (4S)-4′-fluoro-7′-(2-fluoro-3-pyridinyl)-2′-(2-methoxy-4-pyrimidinyl)spiro[1,3-oxazole-4,9′-xanthen]-2-amine] the same measures were 0.0051 µM and 0.07 µM.
As for `COc1cc(F)c2c(c1)[C@]1(CSC(N)=N1)c1cc(-c3cccnc3F)ccc1O2` [Example 608, (4S)-4′-fluoro-7′-(2-fluoro-3-pyridinyl)-2′-methoxyspiro[1,3-thiazole-4,9′-xanthen]-2-amine], the values for the IC50 in experiment [1] (setting [3]) and in experiment [2] (setting [4]) were 0.0036 µM and 0.162 µM, respectively.
`CC(C)(C)COc1cc2c(cn1)Oc1ccc(-c3cccnc3F)cc1[C@@]21COC(N)=N1` [Example 609, (5S)-3-(2,2-dimethylpropoxy)-7-(2-fluoro-3-pyridinyl)spiro[chromeno[2,3-c]pyridine-5,4′-[1,3]oxazol]-2′-amine]: the IC50 in experiment [1] (setting [3]) is 0.0004 µM; in experiment [2] (setting [4]) it was 0.015 µM.
